# Patent publication US5866570A, “Treatment of vascular leakage and related syndrome such as septic shock by administration of metalloproteinase inhibitors” (Wisconsin Alumni Research Foundation, priority 1994, dated 1999)
# Read-outs that look alike come from different tables or passages of the source.
# Key:
# [1] = target: T1, recombinant human 72 kD type IV collagenase (Oncologix), APMA activated (Homo sapiens, UniProt P08253); assay: gelatinase assay, Example 11; assay type: biochemical
# T1 construct: purchased Oncologix
# T1 sequence (P08253 110-660): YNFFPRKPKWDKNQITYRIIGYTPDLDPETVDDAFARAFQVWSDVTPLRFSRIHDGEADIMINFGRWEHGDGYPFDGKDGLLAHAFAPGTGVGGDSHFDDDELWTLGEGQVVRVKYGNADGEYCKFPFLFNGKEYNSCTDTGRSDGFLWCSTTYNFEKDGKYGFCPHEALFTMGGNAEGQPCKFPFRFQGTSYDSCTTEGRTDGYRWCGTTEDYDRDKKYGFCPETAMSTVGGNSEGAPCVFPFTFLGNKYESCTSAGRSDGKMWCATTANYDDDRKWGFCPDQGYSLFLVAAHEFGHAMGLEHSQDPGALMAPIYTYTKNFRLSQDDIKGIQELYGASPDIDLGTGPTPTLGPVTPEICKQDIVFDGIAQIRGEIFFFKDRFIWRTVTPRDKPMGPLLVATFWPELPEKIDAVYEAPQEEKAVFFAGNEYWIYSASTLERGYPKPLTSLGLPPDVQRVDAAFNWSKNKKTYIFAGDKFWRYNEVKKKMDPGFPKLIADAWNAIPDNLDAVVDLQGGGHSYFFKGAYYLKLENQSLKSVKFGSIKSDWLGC
# Experimental: NET-660 Collagen (Rat Type I), N-[Propionate-2-3-^3 H] Propionylated (NEN Dupont) with a specific activity of 0.4 mCi/mg, rat type I Collagen (Sigma), P-aminophenylmercuric acetate, APMA (Sigma), recombinant human 72 kD type IV collagenase (Oncologix) with a specific activity of at least 1000 μg collagen digested/hour/μg enzyme, collagenase buffer (50 mM Tris-HCl, 5 mM CaCl2, 200 mM NaCl, 0.02% Brij-35, pH 7.6), bovine serum albumin (BSA), 250 mM EDTA, and 10% TCA+0.7% tannic acid. The substrate is prepared by mixing the ^3 H collagen with the cold collagen at a 2/3 ratio and diluting in the collagenase buffer. The final assay concentration of the ^3 H collagen is 1% or between 20,000 to 40,000 cpm. Inhibitors are prepared just prior to use by dissolving in DMSO (final assay concentration<1%) or collagenase buffer.
# The 72 kD collagenase enzyme is activated with 0.5 mM APMA for 30 min. at 37° C. and 10 ng of enzyme per assay is used. Inhibitors are preincubated with activated enzyme for 2 hours at 37° C. in collagenase buffer. Substrate is then added to enzyme inhibitor mix and the assay is run for 20 min at 37° C. […] Undigested substrate is precipitated with the TCA/tannic acid solution and soluble counts are determined in a scintillation counter.
# [2] = tested on: HT-1080 cells (human fibrosarcoma); assay: in vitro invasion assay through matrigel (Transwell); assay type: cell-based
# Experimental: Razoxane, various bis(hydroxylated)(2,6-dioxopiperazine)s, and various hydrophobic analogs were tested in an in vitro assay for inhibition of tumor cell penetration of a reconstituted basement membrane, matrigel, isolated from the Englegbreth-Holm-Swarm (EHS) tumor (disclosed in Kleinman et al., Biochem. (1982), 24, 6188-6193) first described by Albini et al, Cancer Res. (1987) 47, 3234-3245. An 8 μm pore filter coated with matrigel separates a lower compartment containing a chemoattractant and an upper compartment containing the cells and test compound. In particular, the following compounds were tested: razoxane, (1α, 2α, 4α, 5α)-4,4'-(4,5-dihydroxy-1,2-cyclohexanediyl)bis(2,6-piperazinedione); (1α, 2α, 4β, 5β)-4,4'-(4,5-dihydroxy-1,2-cyclohexanediyl)bis(2,6-piperazinedione);(1β, 2α,4α,5α)-4,4'-(4,5-dihydroxy-1,2-cyclohexanediyl)bis(2,6-piperazinedione); (1β, 2α, 4α,5β)-4,4'-(4,5-dihydroxy-1,2-cyclohexanediyl)bis(2,6piperazinedione); (1α, 2β, 4α,5β)-4,4'-(4,5-dihydroxy-1,2cyclohexanediyl)bis(2,6-piperazinedione); N,N'-cyclohexane-1,2-diylbis[N(2-ethoxy-2-oxoethyl)]glycine; N,N'-4-cyclohexene-1,2-diylbis[N-(2-ethoxy-2-oxoethyl)-glycine ester; (3aα, 5β, 6β, 7aα)-4,4'-(hexahydro-2,2-dimethyl1,3-benzodioxole-5,6-diyl)bis(2,6-piperazinedione); (3aα, 5α, 6α, 7aα)-4,4'-(hexahydro-2,2-dimethyl-1,3-benzodioxole-5,6-diyl)bis(2,6- piperazinedione); (3aα, 5α, 6β, 7aα)-4,4'-(hexahydro-2,2-dimethyl-1,3-benzodioxole-5,6-diyl)bis-2,6- piperazinedione; (3aα, 5β, 6α, 7aβ)-4,4'-(hexahydro-2,2dimethyl-1,3-benzodioxole-5,6-diyl)bis(2,6-piperazinedione); and (3aα, 5α, 6β, 7aβ)-4,4'-(hexahydro-2,2-dimethyl-1,3-benzodioxole-5,6-diyl) bis(2,6piperazinedione). Metastatic cells are able to degrade the basement membrane protein barrier and migrate through the pores of the filter whereas non-metastatic cells remain on the upper surface. The cells that pass to the under side of the filter are then counted under a microscope. […] Variations of this assay have been used to correlate this in vitro invasion with metastatic potential in vivo (Albini et al. (Id.); Hendrix et al. Cancer Letters (1987); 38, 127-247; Repesh L. A., Invasion Metastasis (1989) 9, 192-208 to select for more highly invasive cells (Teranova et al., Proc. Nat. Acad. Sci., (1986), 83, 465, 464; Tullberg et al., Invasion Metastasis, (1989), 9, 13-26; Sefer et al., Biotechniques, (1990), 9, 324-331), and to test compounds for inhibition (Nakajima et al., Cancer Res. (1989), 49, 1698-1756).
# This method has been improved to increase the number of assays which may be performed and analyzed per day. In particular, such improvement comprises the use of disposable Transwells (Costar) units described by Repesh et al., Invasion Metastasis, (1989), 9, 192-208, which consist of an 8 μm pore filter attached to an insert that fits in a 24 well culture plate. Matrigel concentration is titrated from zero to complete inhibition of motility of each invasive cell line used in the assay and for each batch of matrigel. The matrigel concentration which yields 50% or greater inhibition of motility in a 6 hr assay (usually from 15 to 50 μg of protein per filter) is chosen for determination of invasion. Motility of cells through the 8 μm filters is not by passive diffusion since the pore size is smaller than the cells, and is determined in the same chamber in the absence of matrigel. Motility is stimulated two-fold by the presence of fibroblast conditioned medium (3T3 cells) as a chemoattractant (data not shown). The cell lines used are HT-1080, a human fibrosarcoma, and MDA-MB-231, a human breast carcinoma (both available from the American Type Tissue Culture). These cell lines express both the 72 kD and the 92 kD collagenase type IV as determined by zymography (data not shown).
# For inhibition studies, 5×10^5 cells are plated in 200 μl of DMEM+0.1% BSA+the inhibitor (or appropriate solvent control) into the upper chamber of the Transwell. […]
SMILES,"IC50 ([1]; 10 ng enzyme, 2 hours preincubation at 37° C., 20 min assay, 3H collagen substrate, read-out: IC50 for inhibition of the 72 kD collagenase type IV) [µM]","inhibition at 125 µM ([2]; Homo sapiens, HT-1080, at 125 μM, 6 hour assay, read-out: maximum inhibition of invasion) [%]",inhibition of invasion ([2]; preliminary screen),"effect on cell motility ([2]; preliminary screen, no matrigel)",IC50 [1] [µM],consistent inhibition of invasion without effect on motility ([2]; from 250 μM to 1 mM)
"CC1(C)O[C@H]2C[C@H](N3CC(=O)NC(=O)C3)[C@@H](N3CC(=O)NC(=O)C3)C[C@@H]2O1 (relative stereo) [Compound 80, (3aα, 5β, 6α, 7aβ)-4,4'-(hexahydro-2,2-dimethyl-1,3-benzodioxole-5,6-diyl)bis(2,6-piperazinedione)]",1.8,62,inhibit invasion,without inhibiting cell motility,–,–
CC(CN1CC(=O)NC(=O)C1)N1CC(=O)NC(=O)C1 (stereo not drawn) [razoxane],–,–,–,–,44,could not be demonstrated
